Experimental data: patent publication US10252260B2, “System and method for deforming particles” (CytoVale Inc., priority 2016, dated 2019)

Tests used:
[1] = system: white blood cells; experiment: Deformation of white blood cells in viscous co-flow, bullet metric as a function of treatment time; assay type: cell-based; conditions: white blood cells treated with 5 nM; compared to untreated controls; FIG. 10
Method: FIG. 10 illustrates the bullet metric as a function of treatment time for white blood cells treated with 5 nM phorbol 12-myristate as compared with a untreated control in embodiments of a system and method for deforming particles;
(§1) The system 100 and/or method 200 function to enable the deformation of individual particles in a high-throughput and consistent manner, with the ability to simultaneously generate and analyze multiple data types characterizing the single particles. In one embodiment, the system 100 and/or method 200 further function to enable the generation of data that directly correlates mechanical properties of the particles with one or more fluorescence characterizations of the particles (e.g., fluorescent antibody stains, live/dead cell stains, nuclear stains, stains for apoptosis, fluorescent proteins, etc.) at the single-particle level. This can allow the generation of a direct quantitative comparison between biomolecular properties and mechanical properties. […]
(§2) Regarding Block S240, preferably, deformation metrics can be measured to characterize the deformation of the particles as the particle travels along the deformation region. […]

[2] = system: red blood cells; experiment: Deformation of red blood cells in viscous co-flow (primaquine biomodel), diameter versus bullet metric; assay type: cell-based; conditions: red blood cells of different stiffness induced by different concentrations of primaquine; FIGS. 11A-11C
Source text: FIGS. 11A-11C illustrate bullet metric as a function of size for red blood cells treated with different concentrations of primaquine in variations of a system and method for deforming particles; and
as §1, §2

SMILES: CCCCCCCCCCCCCC(=O)O[C@@H]1[C@@H](C)[C@@]2(O)[C@@H](C=C(CO)C[C@]3(O)C(=O)C(C)=C[C@@H]23)[C@@H]2C(C)(C)[C@]12OC(C)=O
- change in a cell morphological metric (bullet metric) over treatment time [1]: increased change in a cell morphological metric

SMILES: COc1cc(NC(C)CCCN)c2ncccc2c1 (centres unmarked) [primaquine]
- cell morphological metric (e.g. bullet metric) [2]: decrease in a cell morphological metric
